Results from patent publication US12449422B2, “Method and composition matter for immunoproteasome-mediated delivery into living cells” (Purdue Research Foundation, priority 2019, dated 2025).
Blank lines part the entries; values can stand above or below the compound they belong to. No end group written: not given here.

Assays:
[1] = system: A549 cells; assay: Cell Titer-Glo luminescent cell viability assay; format: cell-based
Method: A549 cells were treated with 5 ng/mL IFN-γ for 4 days then split into a black 96-well plate at a density of 5,000 cells/well along with non-IFN-γ treated cells. Cells were allowed to adhere overnight before performing assays. The media was removed and fresh media (50 μL) was added to each well. Each probe was added to each well at the corresponding concentration and the plate was returned to the incubator for the given amount of time. To remove any signal due to FBS in the media, the media was removed and cells were washed with PBS (3 times). After the final wash, PBS (50 μL) was added to each well. The plate was incubated at 37° C. in the plate reader, monitoring the change in fluorescence (Ex—485(20) nm, Em—535(20) nm for Rh-probes; gain=90). Samples were run in five replicates and any outliers (outside the range of average±standard deviation) were removed (no more than two replicates per sample were removed). […] To ensure that observed differences in fluorescence were not due to a difference in total cells or cell viability, a Cell Titer-Glo® luminescent cell viability assay (Promega) was performed in a separate white 96 well plate using the same conditions per the manufacturer's protocol. Luminescence was recorded using a BioTek Synergy™ Neo2 Multimode Microplate Reader. […]

[2] = target: T1, iCP (Homo sapiens, UniProt P28062); assay: LC/MS analysis of TBZ1 cleavage with purified iCP; format: biochemical; conditions: 31 μM, 9 nM iCP, 55 min, 37° C.
T1 construct: purchased Boston Biochem
Excerpt: (§1) We first analyzed TBZ1 in the same conditions as the biochemical assay without any iCP to confirm there was not any non-specific degradation occurring during the LC/MS run. In this, we only observed the two isomers of our probe. After treatment with the iCP, we observed two new peaks in the TIC spectrum. These corresponded to the expected Rh-peptoid and peptide fragments. The full mass of TBZ1 was extracted from each triplicate and compared between iCP and sCP samples. […] When this analysis was performed using sCP, we observed that 77% remained uncleaved.
(§2) In the same way as the biochemical assays (FIG. 11), TBZ1 (31 μM) was incubated at 37° C. with or without purified proteasome (9 nM) in 50 mM tris HCl buffer (pH 7.6) for 55 min in triplicate. After incubation, samples were quenched by adding 50 μL of HPLC-grade acetonitrile. The samples were dried under vacuum then resuspended in 50/50 water/acetonitrile with 0.1% formic acid (100 μL). Samples (50 μL) were analyzed by LC/MS (Agilent 1260 Infinity II with a Zorbax Eclipse Plus C18 column, 2.1×50 mm, 1.8-micron attached to an Agilent 6129 quadrupole mass spectrometer). […] Percent TBZ1 remaining in treated samples was determined by comparing the averages of untreated vs. treated samples.

[3] = target: T2, sCP (Homo sapiens, UniProt P28074); assay: LC/MS analysis of TBZ1 cleavage with purified sCP; format: biochemical; conditions: 31 μM, 9 nM sCP, 55 min, 37° C.
T2 construct: purchased Boston Biochem
Excerpt: as §1, §2

[4] = system: A549 cells; assay: Cellular assay with TBZ1, plate-reader fluorescence; format: cell-based; conditions: 31 μM TBZ1, 15 and 60 min
Method: To determine the selectivity of TBZ1 in cells, both untreated cells and cells treated with IFN-γ were plated at the same cell density into a 96-well plate for fluorescence readouts. After allowing sufficient time for the cells to adhere to the wells, TBZ1 was added and allowed to incubate for various time points. Following the initial incubation, wells were washed with PBS to remove any probe that had not been taken up by the cells and the plate was incubated for an additional hour before the fluorescence was recorded. […] We initially intended to use TBZ4 as a way to confirm that the addition of a peptoid improved cell penetration and protease stability of TBZ1. […]
A549 cells were treated with 5 ng/mL IFN-γ for 4 days then split into a black 96-well plate at a density of 5,000 cells/well along with non-IFN-γ treated cells. […] The plate was incubated at 37° C. in the plate reader, monitoring the change in fluorescence (Ex—485(20) nm, Em—535(20) nm for Rh-probes; gain=90). […] To ensure that observed differences in fluorescence were not due to a difference in total cells or cell viability, a Cell Titer-Glo® luminescent cell viability assay (Promega) was performed in a separate white 96 well plate using the same conditions per the manufacturer's protocol. Luminescence was recorded using a BioTek Synergy™ Neo2 Multimode Microplate Reader. […]

[5] = system: IFN-γ treated A549 cells; assay: Confocal imaging with TBZ1; format: cell-based; conditions: 31 μM TBZ1, one hour, vs DMSO
Method: As an additional way to visualize the cells treated with TBZ1, we analyzed IFN-γ cells using confocal microscopy. Following a similar procedure as the plate reader assay, IFN-γ treated cells were plated on glass coverslip chambers coated with poly-D-lysine and were dosed with TBZ1 (31 μM) or DMSO for one hour. After washing, the cells were returned to the incubator for 30 min before staining with Super Bright 436 HLA-A, B, C antibody to serve as a membrane marker.
After four days of treatment with IFN-γ, A549 cells were plated into 8-well chambered coverglass plates that had been coated with poly-d-lysine (20,000 cells/well). The cells were allowed to adhere overnight then washed once with PBS. Fresh media including 31 μM TBZ1 was added to wells in triplicate and incubated for one hour. After incubation, the cells were washed with PBS (3 times) then kept in 200 μL modified Krebs-Ringer buffer (134 mM NaCl, 3.5 mM KCl, 1.2 mM K2HPO4·3H2O, 0.5 mM MgSO4·7H2O, 1.5 mM CaCl2·2H2O, 5 mM NaHCO3 and 10 mM HEPES, pH 7.4). The samples were returned to the incubator. After 30 min, Super Bright 436 HLA-ABC monoclonal antibody (ThermoFisher #62-9983-42) was added to each well (1 μL/well, 0.1 μg) and the samples were returned to the incubator for an additional 30 min. The samples were again washed with PBS and suspended in modified Krebs-Ringer buffer (200 μL) for imaging. […]

[6] = system: A549 cells; assay: Flow cytometry with TBZ1; format: cell-based; conditions: 31 μM TBZ1, preliminary, single replicate
Method: A549 cells untreated and treated with IFN-γ were each plated into 4 wells of a 12-well plate at 300,000 cells/well. The cells were allowed to adhere overnight. To each well was added fresh media (500 μL) with either DMSO alone or TBZ1 (final concentration=31 μM). The plate was returned to the incubator for an hour. The cells were then washed with PBS (3 times). The plate was incubated for an additional hour in PBS. The cells were removed from each well using trypsin-EDTA solution. After centrifuging and removing the media, the cells were resuspended in PBS. Samples were mixed at a ratio of 1:1 -IFN-γ to +IFN-γ cells then all three samples were analyzed by flow cytometry using a Guava EasyCyte instrument with Guava CytoSoft™ software. Samples were excited with a 488 nm laser and fluorescence intensity was recorded from the 525 nm filter cube. Image analysis was performed using FlowJo v10. Data shown in FIG. 17 is of a single replicate.

[7] = target: T1, iCP; assay: Hit validation: LC/MS of OVA released from hit peptides by iCP; format: biochemical; conditions: for iCP % Change OVA: 5.2 μM peptide, 4 nM iCP, 6 hours, 37° C., vs EIC of control peptide Ala-Ala-Ala-Phe-OVA; for Selectivity: iCP over sCP
Method: (§3) Validation assays were performed under similar conditions as the screen. Briefly, 5 μM of each hit peptide was incubated at 37° C. with 4 nM iCP for six hours in triplicate, then analyzed by LC/MS. All peptides were also analyzed under identical conditions using 4 nM sCP. This was done to confirm that our library design yielded the desired selectivity and not simply sequences that could be efficiently cleaved by either isoform. The mass of OVA was extracted and integrated for each sample, averaging the triplicates. […] Of the nine total hits, six validated successfully. Additionally, all validated hits had at least 1.4-fold selectivity for the iCP (FIG. 4C and FIG. 5). We chose to move forward with the sequence Ala-Thr-Met-Trp, as this not only had highly efficient cleavage by the iCP but also was close to 5-fold selective for the iCP compared to the sCP.
(§4) For validation, purified hit sequences (46 μL final concentration 5.2 μM) in 50 mM tris buffer, pH 7.6 were added to nine wells of a 96 well plate. To each triplicate, 4 μL of tris buffer, 50 nM iCP (final concentration 4 nM) or 50 nM sCP (final concentration 4 nM) was added. This was sealed and allowed to incubate for 6 hours at 37° C. HPLC-grade acetonitrile (50 μL) was added to each sample and the samples were then dried under vacuum. Dried samples were resuspended in 100 μL 50/50 water/acetonitrile with 0.1% formic acid. Each sample was then analyzed by LC/MS with an injection volume of 90 μL. The mass of OVA (887.0-887.9) was extracted. The peak at the same time point as the standard was then integrated and averaged over the triplicate for each sample. Percent change was considered for each triplicate in comparison to the EIC of the control peptide sequence (Ala-Ala-Ala-Phe-OVA). Raw data for integrated OVA peaks can be seen in FIG. 5. Each bar represents an average of triplicates with error bars given as the standard deviation.

[8] = target: T2, sCP; assay: Hit validation: LC/MS of OVA released from hit peptides by sCP; format: biochemical; conditions: 5.2 μM peptide, 4 nM sCP, 6 hours, 37° C.; vs EIC of control peptide Ala-Ala-Ala-Phe-OVA
Method: as §3, §4

[9] = target: T1, iCP; assay: Biochemical assay with fluorogenic substrate probes and purified proteasome; conditions: 31 μM probe, 9 nM proteasome, 37° C.
Method: Initially, we treated various concentrations of TBZ1 from 0-250 μM with both the iCP and sCP (FIG. 11). All concentrations were incubated at 37° C. with 9 nM of the respective proteasomes and the increase in fluorescence was monitored for 60 min at 1 min intervals. We found 31 μM of TBZ1 to give a favorable profile, maintaining about a 3:1 selectivity compared to the sCP (FIG. 6).
The remaining probes were studied at 31 μM and monitored for an increase in fluorescence over 30 minutes. […] Finally, we also sought to compare TBZ1 to the commercially available, iCP-selective substrate probe Ac-ANW-AMC.
Each probe was dissolved in DMSO at a proper stock concentration such that the final concentration of DMSO in the sample is 2%. For TBZ1, a two-fold serial dilution was performed to determine the optimal concentration for biochemical assays. Each stock was then diluted in 50 mM tris buffer, pH 7.6 (1 μL stock per 40 μL buffer) and added to a black 96 well plate in triplicate (41 μL per well). Stocks ([…] in 50 mM tris buffer, pH 7.6) of either iCP or sCP was added to each well (9 μL/well, final concentration=9 nM). The change in fluorescence (Ex—485(20) nm, Em—535(20) nm; gain=50) was monitored over time on a Tecan Infinite 200® Pro Microplate Reader. Data was plotted as the average of triplicate samples using GraphPad Prism 7 and can be found in FIG. 11. […]

Compound: COc1ccc(C[C@H](NC(=O)[C@H](C)NC(=O)CN2CCOCC2)C(=O)N[C@@H](Cc2ccccc2)C(=O)C2(C)CO2)cc1 (stereo in doubt) [ONX-0914]
cell death with ONX-0914 (Cell Titer-Glo) ([1]; ONX-0914 20 μM, IFN-γ treated A549 cells): not due to cell death

Compound: COCCCN(CC(=O)N(CCCN(C)C)CC(N)=O)C(=O)CN(CCCN(C)C)C(=O)CNC(=O)CCC(=O)Nc1ccc2c(c1)Oc1cc(NC(=O)[C@H](Cc3c[nH]c4ccccc34)NC(=O)[C@H](CCSC)NC(=O)[C@@H](NC(=O)[C@H](C)N)C(C)O)ccc1C21OC(=O)c2ccccc21 (stereo partly shown) [TBZ1]
uncleaved TBZ1 remaining in iCP samples [2]: 31% | TBZ1 remaining uncleaved with sCP [3]: 77% | fluorescence signal in IFN-γ treated vs regular A549 cells [4]: significantly increased signal for IFN-γ treated cells | cell viability (Cell Titer-Glo) after TBZ1 treatment ([1]; untreated vs IFN-γ treated A549 cells): no significant difference | intracellular staining by confocal microscopy [5]: increased staining due to probe cleavage within the cell | separation of cell populations by flow cytometry [6]: cell populations can be separated based on increasing amounts of iCP-expressing cells

Compound: Ala-Ala-Ala-Phe-OVA [reference compound]
iCP % Change OVA [7]: 0% | Selectivity ([7]; OVA released): 1.3 | sCP % Change OVA [8]: −25%

Compound: TBZ2 (AEPY; also: ['rhodamine probe conjugate with peptoid group'])
change in fluorescence / cleavage by purified proteasome [9]: very minimal fluorescence

The remaining lines, values ahead:

iCP % Change OVA [7]: −82% | Selectivity ([7]; OVA released): 0.8 | sCP % Change OVA [8]: −78%
Compound: His-Gly-Gly

change in fluorescence / cleavage by purified proteasome [9]: not as efficiently cleaved at TBZ1
Compound: TBZ4 (ATMW; also: rhodamine probe)

iCP % Change OVA [7]: +1502% | selectivity for the iCP compared to the sCP ([7]; hit validation, OVA released): ~5 fold | Selectivity ([7]; OVA released): 4.8 | sCP % Change OVA [8]: +232%
Compound: Thr-Met-Trp: hit peptide: N-terminal Ala, P3-P2-P1 Thr-Met-Trp, attached to modified OVA (ATMW; also: attached to modified OVA)
